Measurements reported in patent US10662229B2, “Spider venom peptides and methods of use for modulating sodium channels” (priority 2016, dated 2020).
“Also recorded” adds a separate entry of the source.

Legend:
[1] = target: T1, hNav1.3 (Homo sapiens, UniProt Q9NY46); assay: FLIPR membrane potential assay, hNav1.3; type: cell-based
T1 construct: host or cells: HEK293
In short: (§1)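 Human Nav channels, each stably expressed in HEK293; agonist-evoked depolarisation monitored via red membrane potential dye on FLIPR^TETRA.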

[2] = target: T2, hNav1.8 (Homo sapiens, UniProt Q9Y5Y9); assay: FLIPR membrane potential assay, hNav1.8; type: cell-based
T2 construct: host or cells: HEK293
In short: as §1

[3] = target: T3, hNav1.7 (Homo sapiens, UniProt Q15858); assay: Automated patch clamping (QPatch-16), hNav1.7; type: cell-based; conditions: for voltage dependence of activation, V50: control −25.1±0.5 mV
T3 construct: host or cells: HEK293
T3 sequence (Q15858 whole entry): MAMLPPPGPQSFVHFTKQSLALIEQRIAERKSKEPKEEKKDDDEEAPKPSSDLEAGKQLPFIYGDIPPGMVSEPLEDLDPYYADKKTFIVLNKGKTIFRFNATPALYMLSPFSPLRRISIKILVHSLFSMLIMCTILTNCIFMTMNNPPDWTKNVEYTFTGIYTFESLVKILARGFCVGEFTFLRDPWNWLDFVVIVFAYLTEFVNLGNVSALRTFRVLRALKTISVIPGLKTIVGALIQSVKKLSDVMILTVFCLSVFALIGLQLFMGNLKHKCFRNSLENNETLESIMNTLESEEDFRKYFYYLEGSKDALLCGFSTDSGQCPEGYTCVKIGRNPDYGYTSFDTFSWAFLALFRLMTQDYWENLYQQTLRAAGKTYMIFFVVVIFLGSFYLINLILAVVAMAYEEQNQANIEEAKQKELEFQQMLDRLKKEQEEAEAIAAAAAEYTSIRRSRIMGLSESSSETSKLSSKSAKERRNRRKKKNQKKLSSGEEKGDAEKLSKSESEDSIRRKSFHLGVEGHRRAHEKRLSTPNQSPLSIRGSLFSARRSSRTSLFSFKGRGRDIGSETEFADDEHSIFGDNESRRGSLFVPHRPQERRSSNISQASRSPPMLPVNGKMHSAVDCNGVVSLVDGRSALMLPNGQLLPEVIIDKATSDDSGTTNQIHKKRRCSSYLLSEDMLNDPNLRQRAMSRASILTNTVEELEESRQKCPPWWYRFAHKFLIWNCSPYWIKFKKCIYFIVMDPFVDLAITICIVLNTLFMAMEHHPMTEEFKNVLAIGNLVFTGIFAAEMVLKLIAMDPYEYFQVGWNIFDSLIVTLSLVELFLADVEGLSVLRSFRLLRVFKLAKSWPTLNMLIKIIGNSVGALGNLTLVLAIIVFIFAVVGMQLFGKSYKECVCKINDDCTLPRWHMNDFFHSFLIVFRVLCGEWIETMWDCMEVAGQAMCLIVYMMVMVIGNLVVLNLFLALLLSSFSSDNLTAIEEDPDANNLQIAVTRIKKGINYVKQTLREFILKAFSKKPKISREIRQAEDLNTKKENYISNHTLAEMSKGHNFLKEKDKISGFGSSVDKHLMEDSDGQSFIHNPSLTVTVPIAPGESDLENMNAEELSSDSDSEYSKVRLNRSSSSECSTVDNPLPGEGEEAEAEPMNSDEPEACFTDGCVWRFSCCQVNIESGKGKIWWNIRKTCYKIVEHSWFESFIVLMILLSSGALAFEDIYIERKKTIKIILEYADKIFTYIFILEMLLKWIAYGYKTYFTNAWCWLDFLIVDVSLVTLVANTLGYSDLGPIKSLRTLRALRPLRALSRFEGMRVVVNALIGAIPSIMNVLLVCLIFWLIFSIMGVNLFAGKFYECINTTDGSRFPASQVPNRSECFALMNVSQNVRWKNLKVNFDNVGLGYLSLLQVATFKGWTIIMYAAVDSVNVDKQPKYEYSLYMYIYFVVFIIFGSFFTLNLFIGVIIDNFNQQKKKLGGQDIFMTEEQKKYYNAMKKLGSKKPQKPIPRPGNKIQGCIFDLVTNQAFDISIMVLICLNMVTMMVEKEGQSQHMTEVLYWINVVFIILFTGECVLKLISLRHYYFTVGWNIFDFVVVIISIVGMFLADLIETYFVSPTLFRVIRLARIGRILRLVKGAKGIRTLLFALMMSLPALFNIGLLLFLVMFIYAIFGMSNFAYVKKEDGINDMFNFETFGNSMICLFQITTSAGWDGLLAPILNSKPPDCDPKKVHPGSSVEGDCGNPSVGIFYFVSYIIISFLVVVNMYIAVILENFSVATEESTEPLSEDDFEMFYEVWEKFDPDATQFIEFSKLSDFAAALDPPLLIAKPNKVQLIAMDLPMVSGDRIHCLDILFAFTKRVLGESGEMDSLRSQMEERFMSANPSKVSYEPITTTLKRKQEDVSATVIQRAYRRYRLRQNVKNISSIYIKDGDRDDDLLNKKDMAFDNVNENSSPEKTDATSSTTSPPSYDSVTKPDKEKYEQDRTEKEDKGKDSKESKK
Method: HEK293 cells stably expressing hNav1.1-1.7 or CHO cells stably expressing hNav1.8 (as described in Example 3 above) were cultured in a T-175 flask in selection antibiotic-free media at 37° C. Cells were grown to 70-80% confluence and harvested using Detachin (Bio-Scientific, NSW, Australia) at 37° C. for 2 min. Dissociated cells were then resuspended in Ex-Cell ACF CHO Medium with HEPES (25 mM; Sigma-Aldrich Co.) and allowed to recover on the QStirrer for 30 min.
The extracellular solution contained in mM: NaCl 145, KCl 4, CaCl2 2, MgCl2 1, HEPES 10 and glucose 10. The pH was adjusted to 7.4 with NaOH and osmolarity was adjusted with sucrose to 305 mOsm. The intracellular solution contained in mM: CsF 140, ethylene glycol tetraacetic acid (EGTA)/CsOH 1/5, HEPES 10 and NaCl 10. The pH was adjusted to 7.3 with CsOH and osmolarity adjusted with sucrose to 320 mOsm.
Whole-cell patch-clamp experiments were performed on a QPatch-16 automated electrophysiology platform (Sophion Bioscience, Ballerup, Denmark) using 16-channel planar patch chip plates (QPlates; Sophion Bioscience) with a patch hole diameter of 1 μm and resistance of 2±0.02 MΩ with the following parameters: positioning pressure −60 mbar, minimum seal resistance 0.1 GΩ, holding potential −100 mV, holding pressure −20 mbar.
Whole-cell currents were filtered at 5 kHz and acquired at 25 kHz.
The current-voltage (IV) curve was constructed with a holding potential of −80 mV followed by a pre-pulse of −100 mV for 50 ms and a series of 50 ms step pulses that ranged from −80 to 50 mV in 5 mV increments before returning to a holding potential of −80 mV. Voltage-dependence of activation was determined as normalized Nav conductance (GNa) using: GNa=INa/(Vmemb−Vrev), where Vmemb is the membrane potential and Vrev is the reversal potential for each cell. The voltage of activation data was fitted to a Boltzmann sigmoidal curve using GraphPad Prism, version 6.0.

[4] = test system: OD1-induced spontaneous pain behaviours in mice; assay: OD1 model of spontaneous pain behaviours; type: in vivo
Method: (§2) For behavioural assessment adult male C57BL/6J mice aged 6-8 weeks were used. Animals were housed in groups of 3 or 4 per cage, under 12 h light-dark cycles and had standard rodent chow and water ad libitum.
OD1 was diluted in phosphate-buffered saline/0.1% BSA (300 nM) and administered by shallow subcutaneous (intraplantar) injection to the left hind paw of mice in a volume of 40 μL under light isoflurane (3%) anesthesia. Mice were then placed individually into polyvinyl boxes (10×10×10 cm), and spontaneous pain behavior (licks and flinches) was counted by an investigator unaware of the treatments received from video recordings for 10 min post-injection.

[5] = test system: burns-induced pain in mice; assay: Burns-induced pain; type: in vivo; conditions: intraplantar, 3 days after burns injury
Method: as §2
To induce a mild burn injury, the plantar skin of the left hind paw of mice was applied with firm pressure to a Peltier plate (Hot/Cold Plate, Ugo Basile, Comerio, Italy) set at 52.5° C. for 25 s under light isoflurane (3%) anaesthesia. Behavioural assessment (mechanical and thermal thresholds) was performed 3 days after the burns injury.
Mechanical allodynia was assessed using an electronic von Frey apparatus (MouseMet Electronic von Frey, TopCat Metrology Ltd, United Kingdom). […] The force that elicited paw withdrawal was calculated using the MouseMet Software. The paw withdrawal force (PWF) was determined from the average of three tests, separated by at least 2 min.
Mice were habituated in individual mouse runs for at least 5 min prior to testing. […] Removal of the paw and/or the probe by the investigator terminates heating, and triggers display of the withdrawal temperature on the readout, without the need for the investigator to manually stop the heating or record the temperature, until the reset button is pressed. The temperature that elicited a paw withdrawal, known as the paw withdrawal temperature (PWT), was determined by a single test.

T1 sequence (Q9NY46 whole entry): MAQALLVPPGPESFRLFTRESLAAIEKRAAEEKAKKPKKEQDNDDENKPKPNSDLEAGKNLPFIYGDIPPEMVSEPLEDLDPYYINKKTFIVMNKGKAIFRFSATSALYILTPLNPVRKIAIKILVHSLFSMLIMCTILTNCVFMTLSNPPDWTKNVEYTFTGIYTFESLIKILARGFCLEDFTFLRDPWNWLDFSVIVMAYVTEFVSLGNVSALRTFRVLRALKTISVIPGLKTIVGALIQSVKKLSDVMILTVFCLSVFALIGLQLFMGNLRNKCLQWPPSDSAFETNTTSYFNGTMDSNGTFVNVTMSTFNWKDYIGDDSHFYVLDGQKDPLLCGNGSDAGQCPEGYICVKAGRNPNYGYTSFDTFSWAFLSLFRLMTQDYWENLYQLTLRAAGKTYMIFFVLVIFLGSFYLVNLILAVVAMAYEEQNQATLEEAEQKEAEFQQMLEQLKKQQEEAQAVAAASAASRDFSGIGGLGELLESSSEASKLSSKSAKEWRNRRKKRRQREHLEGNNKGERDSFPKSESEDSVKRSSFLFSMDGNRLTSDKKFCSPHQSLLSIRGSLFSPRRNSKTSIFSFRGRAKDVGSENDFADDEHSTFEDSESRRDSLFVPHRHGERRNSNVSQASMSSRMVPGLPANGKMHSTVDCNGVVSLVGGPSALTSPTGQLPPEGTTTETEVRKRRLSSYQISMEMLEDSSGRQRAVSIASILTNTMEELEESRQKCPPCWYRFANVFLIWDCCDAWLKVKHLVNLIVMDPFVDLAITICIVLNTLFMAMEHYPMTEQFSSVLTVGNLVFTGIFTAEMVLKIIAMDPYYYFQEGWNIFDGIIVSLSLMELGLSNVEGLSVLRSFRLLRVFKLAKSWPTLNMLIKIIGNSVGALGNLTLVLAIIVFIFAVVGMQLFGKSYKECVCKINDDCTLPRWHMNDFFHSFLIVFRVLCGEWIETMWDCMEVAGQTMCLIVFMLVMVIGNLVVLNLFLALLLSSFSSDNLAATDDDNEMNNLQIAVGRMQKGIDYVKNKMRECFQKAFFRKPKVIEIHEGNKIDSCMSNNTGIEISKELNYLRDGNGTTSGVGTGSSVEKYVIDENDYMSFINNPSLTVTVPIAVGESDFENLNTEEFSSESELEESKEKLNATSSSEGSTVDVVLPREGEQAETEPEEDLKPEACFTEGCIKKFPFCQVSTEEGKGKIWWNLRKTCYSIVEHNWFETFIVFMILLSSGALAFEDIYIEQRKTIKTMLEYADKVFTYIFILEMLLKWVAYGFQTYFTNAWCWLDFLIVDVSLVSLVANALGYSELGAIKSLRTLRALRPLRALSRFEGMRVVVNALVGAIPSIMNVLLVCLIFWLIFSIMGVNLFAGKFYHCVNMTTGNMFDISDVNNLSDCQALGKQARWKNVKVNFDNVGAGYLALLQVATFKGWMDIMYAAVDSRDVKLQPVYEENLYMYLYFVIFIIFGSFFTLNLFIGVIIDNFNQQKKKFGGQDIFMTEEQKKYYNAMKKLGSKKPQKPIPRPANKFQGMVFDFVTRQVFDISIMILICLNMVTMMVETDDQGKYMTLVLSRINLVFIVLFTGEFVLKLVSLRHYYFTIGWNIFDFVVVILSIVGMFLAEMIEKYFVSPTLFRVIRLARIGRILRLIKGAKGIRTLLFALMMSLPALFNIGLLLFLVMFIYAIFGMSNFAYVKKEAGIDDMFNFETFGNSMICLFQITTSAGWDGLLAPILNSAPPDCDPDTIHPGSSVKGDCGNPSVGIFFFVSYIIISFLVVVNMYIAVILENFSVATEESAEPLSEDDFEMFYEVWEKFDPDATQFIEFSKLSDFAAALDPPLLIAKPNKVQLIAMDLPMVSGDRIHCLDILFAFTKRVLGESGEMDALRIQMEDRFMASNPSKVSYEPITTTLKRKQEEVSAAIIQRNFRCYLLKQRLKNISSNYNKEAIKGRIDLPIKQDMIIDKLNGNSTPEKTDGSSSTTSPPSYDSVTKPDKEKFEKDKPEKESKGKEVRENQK

In the case of CSCC[C@@H]1NC(=O)[C@H](Cc2ccc(O)cc2)NC(=O)[C@H](CCCNC(=N)N)NC(=O)[C@@H](NC(=O)[C@@H](N)CC(=O)O)CSSC[C@@H]2NC(=O)[C@@H]3CSSC[C@@H](C(=O)N[C@@H](C)C(=O)N[C@@H](Cc4c[nH]c5ccccc45)C(=O)N[C@@H](CC(=O)O)C(=O)N[C@@H](Cc4ccccc4)C(=O)N[C@H](C(=O)N[C@@H](Cc4ccccc4)C(=O)N[C@H](C(=O)O)[C@@H](C)O)[C@@H](C)O)NC(=O)[C@H](Cc4ccc(O)cc4)NC(=O)[C@H](CCCCN)NC(=O)[C@H](CCSC)NC(=O)[C@H](CCCCN)NC(=O)[C@H](CCCNC(=N)N)NC(=O)[C@H](CCCCN)NC(=O)[C@H](CSSC[C@H](NC(=O)[C@H](CC(=O)O)NC(=O)CNC(=O)[C@H](Cc4ccccc4)NC1=O)C(=O)N[C@@H](CCC(=O)O)C(=O)N[C@@H](CCCCN)C(=O)N[C@@H](CC(=O)O)C(=O)N[C@@H](CCC(=O)O)C(=O)N[C@@H](CC(=O)O)C(=O)N3)NC(=O)CNC(=O)[C@H](CC(C)C)NC(=O)[C@H](Cc1cnc[nH]1)NC(=O)[C@H](CCCCN)NC2=O [Pnc1a], the IC50 [1] is reported as 8.13 µM, the IC50 [2] is reported as 26.3 µM and the “voltage dependence of activation, V50” value ([3]; 0.3 nM) is reported as −28.94±0.66 mV. The “voltage dependence of activation, V50” value ([3]; 10 nM) was −4.40±2.2 mV, the “effect on the voltage dependence of fast inactivation” value ([3]; 100 nM) was “no effect” and the “effect on the voltage dependence of slow inactivation” value ([3]; 100 nM) was “no effect”. The “voltage dependence of activation, V50” value ([3]; 100 nM) was −3.82±0.8 mV, the “spontaneous pain behaviours evoked by OD1” value ([4]; intraperitoneal 0.3, 1, 3 mg/kg, 15 min prior to OD1) was “concentration-dependently reversed; also recorded: dose-dependently reduced” and the “spontaneous pain behaviours evoked by OD1” value ([4]; intraplantar, co-injected with OD1, 100 nM, 300 nM, 1 μM) was “concentration-dependently reversed”. For the same molecule, the “mechanical threshold of the injured paw” value [5] was “no significant effect” and the “thermal threshold of the injured paw” value [5] was “significantly increased”.
